Reference: patent US10532036B2, “Combination composition” (AFT Pharmaceuticals Ltd, priority 2004, dated 2020)
Where two headings read alike, the source gives them in different places.

Assays:
[1] = system: pain following wisdom tooth extraction under local anaesthesia; assay: pilot study using a dental pain model, visual analogue scale pain scores; type: in vivo, patients; settings: VAS score, calculated from the trial of Example 5, lower = less pain
Protocol: Pain scores at rest and on activity were measured by visual analogue scales which were used to derive an area-under-the curve (AUC) pain score. A lower AUC represents better pain relief.
A lower VAS score is consistent with less pain due to better pain relief. […] Pain scores were calculated as means over the first dose interval rather than AUC values to allow comparison with literature values for paracetamol in the dental pain model.

[2] = system: postoperative pain after third molar surgery; settings: VAS, paracetamol 1000 mg, RA Seymour et al 2003, cited from earlier work

Row | Structure (SMILES) | Mean Pain Score at Rest (over first dose interval) [1] [mm] | Mean Pain Score at Rest ([2]; 0-30 minutes) | Mean Pain Score at Rest ([2]; over 4 hours) [mm]
1 | CC(C)Cc1ccc(C(C)C(=O)O)cc1 (stereo not drawn) [Ibuprofen] | 28 |  | 
2 | CC(=O)Nc1ccc(O)cc1 [Paracetamol] |  | 46-48 mm | 42
